Columns and labels:
[1] = test system: barnyardgrass (Echinochloa crus-galli); assay: Test A preemergence, visual injury rating 0-100 (0 no effect, 100 complete control); format: in vivo; details: for Barnyardgrass plant response rating: 0 to 100 scale
[2] = test system: foxtail, green (green foxtail, Setaria viridis); assay: Test A preemergence, visual injury rating 0-100; format: in vivo
kochia (Kochia scoparia) [3] = assay: Test A preemergence, visual injury rating 0-100; format: in vivo; details: for Kochia plant response rating: 0 to 100 scale
[4] = test system: pigweed (Amaranthus retroflexus); assay: Test A preemergence, visual injury rating 0-100; format: in vivo; details: for Pigweed plant response rating: 0 to 100 scale
[5] = test system: ragweed (common ragweed, Ambrosia elatior); assay: Test A preemergence, visual injury rating 0-100; format: in vivo; details: for Ragweed plant response rating: 0 to 100 scale
[6] = test system: ryegrass, Italian (Italian ryegrass, Lolium multiflorum); assay: Test A preemergence, visual injury rating 0-100; format: in vivo; details: for Ryegrass, Italian plant response rating: 0 to 100 scale
[7] = test system: barnyardgrass (Echinochloa crus-galli); assay: Test A postemergence, visual injury rating 0-100; format: in vivo; details: 0 to 100 scale
[8] = test system: blackgrass (Alopecurus myosuroides); assay: Test A postemergence, visual injury rating 0-100; format: in vivo; details: 0 to 100 scale
corn (Zea mays) = assay: Test A postemergence, visual injury rating 0-100; format: in vivo; details: 0 to 100 scale
[9] = test system: foxtail, green (green foxtail, Setaria viridis); assay: Test A postemergence, visual injury rating 0-100; format: in vivo; details: 0 to 100 scale
kochia (Kochia scoparia) [10] = assay: Test A postemergence, visual injury rating 0-100; format: in vivo; details: 0 to 100 scale
[11] = test system: pigweed (Amaranthus retroflexus); assay: Test A postemergence, visual injury rating 0-100; format: in vivo; details: 0 to 100 scale
[12] = test system: ragweed (common ragweed, Ambrosia elatior); assay: Test A postemergence, visual injury rating 0-100; format: in vivo; details: 0 to 100 scale
[13] = test system: ryegrass, Italian (Italian ryegrass, Lolium multiflorum); assay: Test A postemergence, visual injury rating 0-100; format: in vivo; details: 0 to 100 scale
[14] = test system: wheat (Triticum aestivum); assay: Test A postemergence, visual injury rating 0-100; format: in vivo; details: 0 to 100 scale
[15] = test system: ducksalad (Heteranthera limosa); assay: Test B flooded paddy test, visual rating 0-100; details: Flood, 250 g ai/ha, applied to paddy water, rated after 13 to 15 days
[16] = test system: barnyardgrass (Echinochloa crus-galli); assay: Test B flooded paddy test, visual rating 0-100; details: Flood, 250 g ai/ha, applied to paddy water, rated after 13 to 15 days
rice (Oryza sativa) = assay: Test B flooded paddy test, visual rating 0-100 (0 no effect, 100 complete control); details: Flood, 250 g ai/ha, applied to paddy water, rated after 13 to 15 days
[17] = test system: foxtail, giant (giant foxtail, Setaria faberii); assay: Test A preemergence, visual injury rating 0-100; format: in vivo; details: for Foxtail, Giant plant response rating: 0 to 100 scale
[18] = test system: foxtail, giant (giant foxtail, Setaria faberii); assay: Test A postemergence, visual injury rating 0-100; format: in vivo; details: 0 to 100 scale
[19] = test system: galium (catchweed bedstraw, Galium aparine); assay: Test A postemergence, visual injury rating 0-100; format: in vivo; details: 0 to 100 scale

Structure (SMILES) | Barnyardgrass plant response rating (0 to 100 scale) ([1]; 125 g ai/ha) | Kochia plant response rating (0 to 100 scale) (kochia (Kochia scoparia) [3]; 125 g ai/ha) | Pigweed plant response rating (0 to 100 scale) ([4]; 125 g ai/ha) | Ragweed plant response rating (0 to 100 scale) ([5]; 125 g ai/ha) | Barnyardgrass plant response rating ([7]; 125 g ai/ha) | Barnyardgrass plant response rating ([7]; 500 g ai/ha) | Blackgrass plant response rating ([8]; 125 g ai/ha) | Blackgrass plant response rating ([8]; 500 g ai/ha) | Corn plant response rating (corn (Zea mays); 125 g ai/ha) | Corn plant response rating (corn (Zea mays); 500 g ai/ha) | Kochia plant response rating (kochia (Kochia scoparia) [10]; 125 g ai/ha) | Kochia plant response rating (kochia (Kochia scoparia) [10]; 500 g ai/ha) | Pigweed plant response rating ([11]; 125 g ai/ha) | Pigweed plant response rating ([11]; 500 g ai/ha) | Ragweed plant response rating ([12]; 125 g ai/ha) | Ragweed plant response rating ([12]; 500 g ai/ha) | Ryegrass, Italian plant response rating ([13]; 125 g ai/ha) | Ryegrass, Italian plant response rating ([13]; 500 g ai/ha) | Wheat plant response rating ([14]; 125 g ai/ha) | Wheat plant response rating ([14]; 500 g ai/ha) | further results
CC1=[N+]([O-])C(C(=O)Nc2cccc(F)c2F)C(c2ccc(C)c(C)c2)C1 (racemic) [Compound 24] | 90 | 40 | 20 | 60 | 90 | 90 | 20 | 60 | 50 | 90 | 50 | 70 | 30 | 60 | 20 | 50 | 90 | 80 | 50 | 90 | Barnyardgrass plant response rating ([1]; 500 g ai/ha): 90; Foxtail, Green plant response rating (0 to 100 scale) ([2]; 125 g ai/ha): 90; Foxtail, Green plant response rating ([2]; 500 g ai/ha, 0 to 100 scale): 90; Kochia plant response rating (kochia (Kochia scoparia) [3]; 500 g ai/ha): 90; Pigweed plant response rating ([4]; 500 g ai/ha): 50; Ragweed plant response rating ([5]; 500 g ai/ha): 80; Ryegrass, Italian plant response rating (0 to 100 scale) ([6]; 125 g ai/ha): 40; Ryegrass, Italian plant response rating ([6]; 500 g ai/ha): 70; Foxtail, Green plant response rating ([9]; 125 g ai/ha): 80; Foxtail, Green plant response rating ([9]; 500 g ai/ha): 90; Ducksalad plant response rating (0 to 100 scale) [15]: 85; Barnyardgrass plant response rating (0 to 100 scale) [16]: 70; Rice plant response rating (0 to 100 scale) (rice (Oryza sativa)): 0
CC1=[N+]([O-])[C@H](C(=O)Nc2cccc(F)c2F)[C@@H](c2ccc(C)cc2)C1 (relative stereo) [Compound 6, rel-(2S,3R)—N-(2,3-Difluorophenyl)-3,4-dihydro-5-methyl-3-(4-methylphenyl)-2H-pyrrole-2-carboxamide 1-oxide] | 100 | 70 | 80 | 40 | 90 | 90 | 50 | 80 | 30 | 80 | 30 | 70 | 40 | 50 | 0 | 60 | 50 | 60 | 60 | 80 | Barnyardgrass plant response rating ([1]; 500 g ai/ha): 100; Foxtail, Giant plant response rating (0 to 100 scale) ([17]; 125 g ai/ha): 100; Foxtail, Giant plant response rating ([17]; 500 g ai/ha): 100; Kochia plant response rating (kochia (Kochia scoparia) [3]; 500 g ai/ha): 70; Pigweed plant response rating ([4]; 500 g ai/ha): 90; Ragweed plant response rating ([5]; 500 g ai/ha): 100; Ryegrass, Italian plant response rating (0 to 100 scale) ([6]; 125 g ai/ha): 80; Ryegrass, Italian plant response rating ([6]; 500 g ai/ha): 90; Foxtail, Giant plant response rating ([18]; 125 g ai/ha): 90; Foxtail, Giant plant response rating ([18]; 500 g ai/ha): 90; Galium plant response rating ([19]; 125 g ai/ha): 50; Galium plant response rating ([19]; 500 g ai/ha): 70; Ducksalad plant response rating (0 to 100 scale) [15]: 100; Barnyardgrass plant response rating (0 to 100 scale) [16]: 85; Rice plant response rating (0 to 100 scale) (rice (Oryza sativa)): 0
CC1=[N+]([O-])C(C(=O)Nc2cccc(F)c2F)C(c2cccc(C(C)C)c2)C1 (racemic) [Compound 12] | 100 | 0 | 0 | 0 | 10 | 90 | 0 | 50 | 50 | 90 | 0 | 30 | 0 | 20 | 0 | 40 | 0 | 50 | 20 | 70 | Barnyardgrass plant response rating ([1]; 500 g ai/ha): 100; Foxtail, Giant plant response rating (0 to 100 scale) ([17]; 125 g ai/ha): 100; Foxtail, Giant plant response rating ([17]; 500 g ai/ha): 100; Kochia plant response rating (kochia (Kochia scoparia) [3]; 500 g ai/ha): 50; Pigweed plant response rating ([4]; 500 g ai/ha): 30; Ragweed plant response rating ([5]; 500 g ai/ha): 90; Ryegrass, Italian plant response rating (0 to 100 scale) ([6]; 125 g ai/ha): 0; Ryegrass, Italian plant response rating ([6]; 500 g ai/ha): 90; Foxtail, Giant plant response rating ([18]; 125 g ai/ha): 90; Foxtail, Giant plant response rating ([18]; 500 g ai/ha): 90; Galium plant response rating ([19]; 125 g ai/ha): 50; Galium plant response rating ([19]; 500 g ai/ha): 70; Ducksalad plant response rating (0 to 100 scale) [15]: 80; Barnyardgrass plant response rating (0 to 100 scale) [16]: 70; Rice plant response rating (0 to 100 scale) (rice (Oryza sativa)): 0
CC1=[N+]([O-])[C@H](C(=O)Nc2cccc(F)c2F)[C@@H](c2ccc(C(F)(F)F)c(F)c2)C1 (relative stereo) [Compound 61, rel-(2S,3R)—N-(2,3-Difluorophenyl)-3-[3-fluoro-4-(trifluoromethyl)phenyl]-3,4-dihydro-5-methyl-2H-pyrrole-2-carboxamide 1-oxide] | 90 | 30 | 80 | 50 | 70 | 90 | 50 | 90 | 50 | 90 | 0 | 30 | 30 | 50 | 0 | 50 | 80 | 80 | 70 | 90 | Barnyardgrass plant response rating (0 to 100 scale) ([1]; 500 g ai/ha): 90; Foxtail, Giant plant response rating (0 to 100 scale) ([17]; 125 g ai/ha): 90; Foxtail, Giant plant response rating (0 to 100 scale) ([17]; 500 g ai/ha): 90; Kochia plant response rating (0 to 100 scale) (kochia (Kochia scoparia) [3]; 500 g ai/ha): 80; Pigweed plant response rating (0 to 100 scale) ([4]; 500 g ai/ha): 90; Ragweed plant response rating (0 to 100 scale) ([5]; 500 g ai/ha): 80; Ryegrass, Italian plant response rating (0 to 100 scale) ([6]; 125 g ai/ha): 80; Ryegrass, Italian plant response rating (0 to 100 scale) ([6]; 500 g ai/ha): 90; Foxtail, Giant plant response rating ([18]; 125 g ai/ha): 70; Foxtail, Giant plant response rating ([18]; 500 g ai/ha): 90; Galium plant response rating ([19]; 125 g ai/ha): 50; Galium plant response rating ([19]; 500 g ai/ha): 60; Ducksalad plant response rating (0 to 100 scale) [15]: 74; Barnyardgrass plant response rating (0 to 100 scale) [16]: 65; Rice plant response rating (0 to 100 scale) (rice (Oryza sativa)): 0
CC1=[N+]([O-])C(C(=O)Nc2cccc(F)c2F)C(c2ccc(Cl)c(F)c2)C1 (racemic) [Compound 107] | 90 | 0 | 0 | 0 | 70 | 90 | 70 | 70 | 30 | 80 | 20 | 20 | 0 | 30 | 30 | 60 | 10 | 70 | 10 | 60 | Barnyardgrass plant response rating (0 to 100 scale) ([1]; 500 g ai/ha): 90; Foxtail, Giant plant response rating (0 to 100 scale) ([17]; 125 g ai/ha): 90; Foxtail, Giant plant response rating (0 to 100 scale) ([17]; 500 g ai/ha): 90; Kochia plant response rating (0 to 100 scale) (kochia (Kochia scoparia) [3]; 500 g ai/ha): 90; Pigweed plant response rating (0 to 100 scale) ([4]; 500 g ai/ha): 80; Ragweed plant response rating (0 to 100 scale) ([5]; 500 g ai/ha): 50; Ryegrass, Italian plant response rating (0 to 100 scale) ([6]; 500 g ai/ha): 80; Foxtail, Giant plant response rating ([18]; 125 g ai/ha): 60; Foxtail, Giant plant response rating ([18]; 500 g ai/ha): 90; Galium plant response rating ([19]; 125 g ai/ha): 70; Galium plant response rating ([19]; 500 g ai/ha): 70; Ducksalad plant response rating (0 to 100 scale) [15]: 70; Barnyardgrass plant response rating (0 to 100 scale) [16]: 40; Rice plant response rating (0 to 100 scale) (rice (Oryza sativa)): 0

— US11498899B2, “Nitrone herbicides” (FMC Corporation, priority 2016, dated 2022)
